Laboratory results as given in PubChem BioAssay (NCI).
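Step 1: Grow cells in 96-well plates. Step 2: Expose to compound for 48 hours at 5 concentrations. Step 3: Interpolate endpoints linearly; if unreached, use highest concentration. TGI denotes the concentration required for complete inhibition of growth.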

Assays:
Assay in all cases: growth of human tumour cells (NCI), 48 h
[1] = system: SW-620 colon
[2] = system: BT-549 breast
[3] = system: A549 NSCLC
[4] = system: NCI/ADR-RES ovarian
[5] = system: CCRF-CEM leukemia
[6] = system: HCC-2998 colon
[7] = system: SF-539 CNS
[8] = system: CAKI-1 renal
[9] = system: MDA-MB-435
[10] = system: HS 578T breast
[11] = system: MALME-3M melanoma
[12] = system: OVCAR-4 ovarian
[13] = system: SF-295 CNS
[14] = system: SK-MEL-2 melanoma
[15] = system: SNB-19 CNS
[16] = system: PC-3 prostate
[17] = system: SNB-75 CNS
[18] = system: SK-OV-3 ovarian
[19] = system: T-47D breast
[20] = system: DU-145 prostate
[21] = system: UO-31 renal
[22] = system: KM12 colon
[23] = system: K-562 leukemia
[24] = system: HOP-62 NSCLC
[25] = system: MCF7 breast
[26] = system: MDA-N
[27] = system: RPMI-8226 leukemia
[28] = system: IGROV1 ovarian
[29] = system: SR leukemia
[30] = system: HCT-116 colon
[31] = system: HL-60(TB) leukemia
[32] = system: HCT-15 colon
[33] = system: EKVX NSCLC
[34] = system: M14 melanoma
[35] = system: NCI-H23 lung
[36] = system: NCI-H522 lung
[37] = system: RXF 393 renal
[38] = system: MOLT-4 leukemia
[39] = system: NCI-H460 lung
[40] = system: A498 renal
[41] = system: OVCAR-5 ovarian
[42] = system: SK-MEL-5 melanoma
[43] = system: LOX IMVI melanoma
[44] = system: NCI-H226 lung
[45] = system: HT29 colon
[46] = system: SF-268 CNS
[47] = system: SK-MEL-28 melanoma
[48] = system: SN12C renal
[49] = system: HOP-92 NSCLC
[50] = system: 786-0 renal
[51] = system: OVCAR-3 ovarian
[52] = system: UACC-62 melanoma
[53] = system: COLO 205 colon
[54] = system: ACHN renal
[55] = system: UACC-257 melanoma
[56] = system: OVCAR-8 ovarian
[57] = system: U251 CNS
[58] = system: TK-10 renal

CCC(=O)Nc1ccc(N2C(=O)C(Cl)C2c2ccc(SC)cc2)cc1 (stereo not given) was tested. Which TGI [1] did it give?
Its TGI is greater than 100 µM.

What about the TGI [2] of the same compound?
The TGI was greater than 100 µM.

What about the TGI [3] of the same compound?
Its TGI is greater than 100 µM.

What about the TGI [4] of the same compound?
Its TGI is greater than 100 µM.

And the TGI [5]?
The TGI was greater than 100 µM.

And the TGI [6]?
The TGI was 96.9 µM.

And the TGI [7]?
The TGI was greater than 100 µM.

And the TGI [8]?
Its TGI is greater than 100 µM.

And the TGI [9]?
The TGI was greater than 100 µM.

What about the TGI [10] of the same compound?
The TGI was greater than 100 µM.

What about the TGI [11] of the same compound?
Its TGI is greater than 100 µM.

What about the TGI [12] of the same compound?
The TGI was greater than 100 µM.

What about the TGI [13] of the same compound?
The TGI was greater than 100 µM.

What about the TGI [14] of the same compound?
The TGI was greater than 100 µM.

What about the TGI [15] of the same compound?
The TGI was greater than 100 µM.

And the TGI [16]?
Its TGI is greater than 100 µM.

What about the TGI [17] of the same compound?
The TGI was greater than 100 µM.

And the TGI [18]?
Its TGI is greater than 100 µM.

What about the TGI [19] of the same compound?
The TGI was greater than 100 µM.

And the TGI [20]?
Its TGI is greater than 100 µM.

And the TGI [21]?
The TGI was greater than 100 µM.

What about the TGI [22] of the same compound?
Its TGI is greater than 100 µM.

And the TGI [23]?
The TGI was greater than 100 µM.

What about the TGI [24] of the same compound?
The TGI was greater than 100 µM.

And the TGI [25]?
Its TGI is greater than 100 µM.

What about the TGI [26] of the same compound?
Its TGI is greater than 100 µM.

What about the TGI [27] of the same compound?
The TGI was greater than 100 µM.

And the TGI [28]?
Its TGI is greater than 100 µM.

What about the TGI [29] of the same compound?
Its TGI is greater than 100 µM.

What about the TGI [30] of the same compound?
Its TGI is greater than 100 µM.

And the TGI [31]?
The TGI was greater than 100 µM.

And the TGI [32]?
Its TGI is greater than 100 µM.

And the TGI [33]?
The TGI was greater than 100 µM.

What about the TGI [34] of the same compound?
The TGI was greater than 100 µM.

And the TGI [35]?
Its TGI is greater than 100 µM.

And the TGI [36]?
Its TGI is greater than 100 µM.

What about the TGI [37] of the same compound?
Its TGI is greater than 100 µM.

And the TGI [38]?
Its TGI is greater than 100 µM.

What about the TGI [39] of the same compound?
Its TGI is greater than 100 µM.

What about the TGI [40] of the same compound?
Its TGI is greater than 100 µM.

And the TGI [41]?
The TGI was greater than 100 µM.

What about the TGI [42] of the same compound?
The TGI was 79.8 µM.

What about the TGI [43] of the same compound?
The TGI was greater than 100 µM.

What about the TGI [44] of the same compound?
The TGI was 98.1 µM.

And the TGI [45]?
The TGI was greater than 100 µM.

What about the TGI [46] of the same compound?
Its TGI is greater than 100 µM.

What about the TGI [47] of the same compound?
Its TGI is greater than 100 µM.

And the TGI [48]?
The TGI was greater than 100 µM.

And the TGI [49]?
The TGI was greater than 100 µM.

And the TGI [50]?
The TGI was greater than 100 µM.

And the TGI [51]?
The TGI was greater than 100 µM.

And the TGI [52]?
The TGI was greater than 100 µM.

And the TGI [53]?
Its TGI is greater than 100 µM.

And the TGI [54]?
Its TGI is greater than 100 µM.

What about the TGI [55] of the same compound?
Its TGI is greater than 100 µM.

What about the TGI [56] of the same compound?
The TGI was greater than 100 µM.

What does the source list for CC1(C)OCC=CCO1?
TGI [1]: > 100 µM; TGI [2]: > 100 µM; TGI [3]: > 100 µM; TGI [4]: > 100 µM; TGI [5]: > 100 µM; TGI [6]: > 100 µM; TGI [7]: > 100 µM; TGI [8]: > 100 µM; TGI [9]: > 100 µM; TGI [10]: > 100 µM; TGI [11]: > 100 µM; TGI [12]: > 100 µM; TGI [13]: > 100 µM; TGI [14]: > 100 µM; TGI [57]: > 100 µM; TGI [15]: > 100 µM; TGI [16]: > 100 µM; TGI [17]: > 100 µM; TGI [18]: > 100 µM; TGI [19]: > 100 µM; TGI [20]: > 100 µM; TGI [21]: > 100 µM; TGI [22]: > 100 µM; TGI [23]: > 100 µM; TGI [24]: > 100 µM; TGI [25]: > 100 µM; TGI [26]: > 100 µM; TGI [27]: > 100 µM; TGI [28]: > 100 µM; TGI [30]: > 100 µM; TGI [31]: > 100 µM; TGI [33]: > 100 µM; TGI [34]: > 100 µM; TGI [35]: > 100 µM; TGI [36]: > 100 µM; TGI [37]: > 100 µM; TGI [38]: > 100 µM; TGI [39]: > 100 µM; TGI [41]: > 100 µM; TGI [42]: > 100 µM; TGI [43]: > 100 µM; TGI [44]: > 100 µM; TGI [45]: > 100 µM; TGI [46]: > 100 µM; TGI [47]: > 100 µM; TGI [48]: > 100 µM; TGI [49]: > 100 µM; TGI [51]: > 100 µM; TGI [52]: > 100 µM; TGI [53]: > 100 µM; TGI [58]: > 100 µM; TGI [54]: > 100 µM; TGI [55]: > 100 µM; TGI [56]: > 100 µM
